Columns and labels:
[1] = Pharmacokinetic study, brain distribution test (TM in brain and whole blood); type: in vivo, SD rats; conditions: single gavage to rats, trapezoidal method, calculated after deducting the concentration at time zero
Method: The SD rats used in this test were purchased from Zhejiang Charles rive Laboratory Animal Co., Ltd. Both male and female rats of SPF grade weighting about 250 g were used.
Preparation of the test article: a proper amount of test article was weighed and ground as fine powder in a mortar. A certain amount of the vehicle was added to a proper container, and then the ground test article was added to the container under magnetic stirring. The mixture was stirred until the appearance is uniform.
The male SD rats were divided into three groups (16 rats in each group) (4 animals were sacrificed at 4 time points). […] The animals were sacrificed at 5 min, 1 h, 3 h, and 9 h after the administration. The brain was taken out immediately after sacrifice, rinsed with ice-cold water and rinsed. 50 mg of the brain tissue was weighed, added to 0.45 mL of 100 mM dipotassium hydrogen phosphate buffer (pH=5.0) and homogenized. Blood samples were taken simultaneously and anticoagulated with EDTA. After collection, blood samples were placed on ice. 150 μL of whole blood was taken and 150 μL of 5.2% perchloric acid was added to determine TM. Another 4 animals were gavage administered with normal saline for the determination of endogenous TM concentration. All samples were frozen and stored in a −80° C. refrigerator.
The concentrations of TM and TDP in the samples were determined by HPLC-FLD.
The non-compartment model of the DAS software was used to calculate the pharmacokinetic parameters of TM and TDP in blood of rats after administration. The concentration of TM in the brain tissue after the drug administration in rats was measured, and the mean value and standard deviation were calculated. The area under the drug-time curve AUC was calculated using the trapezoidal method.

APP/PSi 2×Tg mice = assay: Water maze behavior test; type: in vivo; conditions: 200 mg/kg oral gavage once a day, 8 weeks; for The number of crossing the platform: test day 6, model group 0.9 ± 0.6; for Time in the target quadrant: test day 6, model group 12.8 ± 2.9, in s
Source text: Rodents in water have a strong incentive to escape from the water environment, and can escape from the water environment in the fastest and most direct way. The process of learning to escape from the water environment reflects the learning ability of the animals. Spatial positioning according to the surrounding environment and purposefully swimming to a safe place in the water (such as a platform) can reflect the spatial learning and memory ability of the animals.
The test animals were APP/PSi 2×Tg mice (C57BL/6 wild-type mice as the blank control). Mice of 6-8 months old, weighing 20-40 g, were purchased from The Jackson laboratory.
APP/PSi mice are APP/PSi di-transgenic Alzheimer's disease (2×Tg-AD) model mice, and the appearance of deposition of Aβ is earlier than the pathological changes of tau protein for several months, which can more truly simulate the clinical process and pathological changes of Alzheimer's disease.
Preparation of 0.7% CMC-Na: 0.7 g CMC-Na was added with a proper amount of water, heated for dissolution, left for cooling to room temperature, diluted to 100 mL, and stored at 4° C.
Preparation of BTMP: 100 mg of BTMP was added to 10 mL of 0.7% CMC-Na to prepare a 10 mg/mL suspension for use.
Preparation of test compound and comparative compound 1: 100 mg of the compound to be tested was weighted and added to 10 mL of 0.7% CMC-Na to prepare a 10 mg/mL suspension for use.
The laboratory mice were randomly divided into groups (9 or 10 mice per group). Mice in each group were administrated at a dosage of 0.2 mL/10 g body weight by oral gavage once a day for eight weeks.
The mice in the blank control group, model group and test group were orally administrated for 8 consecutive weeks according to the above administration dosage/specification. The water maze training and test were started in the last week of administration. The water maze training and test lasted for six days, with a training period of five days and a testing period of one day. In addition, during the training and testing period of water maze (6 days in total), the indoor conditions such as lighting etc. were kept consistent, the room was kept quiet, and the interference from the environment and personnel was excluded.
2.1. Preparation before the test: a proper amount of water was put into the water maze pool with the water temperature being kept at 22±3° C. The platform was placed in a fixed position (target quadrant) and 1 cm below the water surface, and titanium dioxide was added until the water became white, so that the platform could not be seen clearly.
2.2. Training period (days 1 to 5): on each day, before the first quadrant training, each mouse was placed on the platform for 15 s (to increase the mice's sense of security on the platform), and then the mouse was put into the pool (with its head facing the pool wall) from the quadrant where the platform located, and the swimming time was set as 60 s. If the mouse found the platform within 60 s and stayed for 5 s, it was regarded as the platform being found successfully. If the mouse could not find the platform, then the time was recorded as 60 s. The mouse was guided to the platform and stayed for 20 s, the mouse was then taken out, and the quadrant training for this mouse was ended.
After the first quadrant training, the mouse was trained in the remaining three quadrants sequentially, where it is not necessary to place the mouse on the platform for 15 s before training. The training of each mouse in every two quadrants was conducted at an interval of 10-15 minute. In this way, the training was performed continuously for 5 days.
2.3. Testing period (day 6): 24 hours after the last training, the platform was removed, and the mouse was dropped at the position opposite to the quadrant where the platform previously located (i.e., the position furthest away from the platform). […]

Aβ42 = Aβ42 content in culture supernatant of HEK293APP/sw overexpressing cells (ELISA kit); type: cell-based; conditions: compound 400 μM, 24 hours, adjusted by total protein concentration, blank control 11.08
Method: (§1) BCA Protein Assay Kit was purchased from Beyotime, Aβ40 and Aβ42 detection kits were purchased from Wako, and cell culture related reagents were purchased from Gibco.
(§2) HEK293APP/sw overexpressing cells were cultured in DMEM medium containing 10% FBS, 100 μg/mL G418 (Geneticin) and 1×Penicillin-Streptomycin in 48-well plates. A 4 mM compound stock solution (prepared by dissolving the compound in DMEM culture medium) was filtered through a 0.22 μm sterile filter and stored at −20° C. for subsequent use. At 70% cell density, 40 μL of the compound test solution was added to each well to reach a final concentration of 400 μM, and the plate was incubated for 24 hours.
(§3) The supernatant of the culture medium was collected. The BCA reagent was added to a part of the supernatant, after incubating at room temperature for 30 min, the absorbance value (i.e., OD value) of each well was determined by a microplate reader at 570 nm. The total protein concentration was calculated according to a protein standard curve. Meanwhile, the other part of the supernatant (100 μL) was added to a coated 96-well plate and incubated overnight at 4° C., after the solution was removed and the reagents were washed, HRP (horseradish peroxidase)-labeled antibody was added and incubated at 4° C. for 2 hours. After the reagents were removed and washed, a TMB chromogenic solution was added, the plate was incubated at room temperature for 30 min, and then a stop solution was added to stop the reaction. The absorbance value (i.e., OD value) of each well was measured by a microplate reader at 450 nm. The concentrations of Aβ40 and Aβ42 were calculated according to the standard curves of Aβ40 and Aβ42, respectively. In the end, the concentrations of Aβ40 and Aβ42 were adjusted by the total protein concentration, so as to obtain the final concentration.

Aβ40 = Aβ40 content in culture supernatant of HEK293APP/sw overexpressing cells (ELISA kit); type: cell-based; conditions: compound 400 μM, 24 hours, adjusted by total protein concentration, blank control 127.81
Method: as §1, §2, §3

[2] = test day 6, model group 45.0 ± 8.8, 200 mg/kg

| AUC of TM in the brain [1] [ng·h/g] | Structure (SMILES) | The number of crossing the platform (APP/PSi 2×Tg mice) | Time in the target quadrant (APP/PSi 2×Tg mice) | Latency period (APP/PSi 2×Tg mice; [2]) [s] | Latency period (APP/PSi 2×Tg mice; test day 6, model group 45.0 ± 8.8) [s] | The content of Aβ42 (Aβ42) [pmol/L] | The content of Aβ40 (Aβ40) [pmol/L] |
| --- | --- | --- | --- | --- | --- | --- | --- |
| 739.9 | C/C(=C(\CCOP(=O)(O)O)SC(=O)c1ccccc1)N(C=O)Cc1cnc(C)nc1N [BTMP, benfotiamine, reference compound] | 2.1 ± 0.6 | 18.0 ± 3.5 | 27.3 ± 1.6 | – | – | – |
| – | C/C(=C(\CCOP(=O)(O)O)SC(=O)C(C)C)N(C=O)Cc1cnc(C)nc1N [Comparative compound 1, reference compound] | 2.1 ± 0.6 | 18.1 ± 2.8 | 27.0 ± 1.3 | – | – | – |
| 555.9 | CCCCC(CC)C(=O)S/C(CCOP(=O)(O)O)=C(/C)N(C=O)Cc1cnc(C)nc1N (stereo not drawn) [Comparative compound 2, reference compound] | – | – | – | – | – | – |
| – | C/C(=C(\CCOP(=O)(O)O)SC(=O)OCCc1ccccc1)N(C=O)Cc1cnc(C)nc1N [Compound 5, (Z)—S-(2-(N-((4-amino-2-methylpyrimidin-5-yl)methyl)formamido)-5-(phosphonooxy)pent-2-en-3-yl) O-phenethyl carbonothioate] | 2.2 ± 0.7 | 17.7 ± 2.6 | – | 25.0 ± 2.2 | 4.92 | 48.94 |
| – | C/C(=C(\CCOP(=O)(O)O)SC(=O)c1ccc(Cl)s1)N(C=O)Cc1cnc(C)nc1N [Compound 7, (Z)—S-(2-(N-((4-amino-2-methylpyrimidin-5-yl)methyl)formamido)-5-(phosphonooxy)pent-2-en-3-yl) 5-chlorothiophene-2-carbothioate] | – | – | – | – | 5.03 | 35.93 |
| – | COc1ccc2oc(C(=O)S/C(CCOP(=O)(O)O)=C(/C)N(C=O)Cc3cnc(C)nc3N)cc2c1 [Compound 8, (Z)—S-(2-(N-((4-amino-2-methylpyrimidin-5-yl)methyl)formamido)-5-(phosphonooxy)pent-2-en-3-yl) 5-methoxybenzofuran-2-carbothioate] | – | – | – | – | 2.31 | 60.96 |
| – | C/C(=C(\CCOP(=O)(O)O)SC(=O)c1cc2ccccc2o1)N(C=O)Cc1cnc(C)nc1N [Compound 13, (Z)—S-(2-(N-((4-amino-2-methylpyrimidin-5-yl)methyl)formamido)-5-(phosphonooxy)pent-2-en-3-yl) benzofuran-2-carbothioate] | – | – | – | – | 7.21 | 43.76 |
| – | C/C(=C(\CCOP(=O)(O)O)SC(=O)c1ccoc1)N(C=O)Cc1cnc(C)nc1N [Compound 15, (Z)—S-(2-(N-((4-amino-2-methylpyrimidin-5-yl)methyl)formamido)-5-(phosphonooxy)pent-2-en-3-yl) furan-3-carbothioate] | – | – | – | – | 10.52 | 37.88 |

From US20240270771A1, “Compound containing phosphate group, pharmaceutical composition containing same, preparation method therefor and use thereof” (SHANGHAI RAISING PHARMACEUTICAL CO., LTD., priority 2021, published 2024)
